As a reminder, the inhibition is the change of the read-out against control, counted positive when it falls.

Experimental findings from patent EP4740948A1 (Dong Wha Pharm. Co., Ltd., priority 2023, dated 2025) are described below.

The target of one assay is EZH1 (Homo sapiens, UniProt Q92800). Description: AlphaLISA enzyme activity inhibition, EZH1. Format: biochemical. To be noted: 5nM test substance. As to the method: (§1) In order to confirm the EZH1 and/or EZH2 activity inhibitory effect of the 1,3-benzodioxole derivative compounds represented by chemical formula I of the present invention, the activity was measured using an AlphaLISA test method. The test substance dissolved in dimethylsulfoxide (DMSO) was diluted in a test solution (20 mM Tris pH 8.0, 0.1% BSA, 0.01% Triton X-100, 0.5 mM DTT) according to a final treatment concentration (5 nM or 10 nM) and mixed with EZH1 and EZH2, respectively, and then histone H3 peptide and S-adenosylmethionine (SAM) were added to initiate an enzyme reaction. An acceptor bead was added thereto after reaction for two hours and subjected to an additional reaction for one hour, after which a donor bead was added thereto. After an additional reaction for 30 minutes, the reaction was completed. An activity was measured using the Magellan program on a Spark10M instrument. DMSO was used as a control group, an inhibition rate of enzyme activity was calculated using a following equation, and the results thereof are shown in Table 1 below. [formula]
In general terms: Bead proximity is the source of the signal in Alpha formats.

A further assay has as its system SW-13 cells. In words: Cancer cell proliferation inhibition (Cell Counting Kit-8), adrenal cancer cell line. The settings on record: Homo sapiens, SW13, 264 h, 1000 nM, cultured seven to 11 days; read-out: % inhibition rate SW-13. Format: cell-based. A digest of the protocol:
(§2)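 Single-concentration test: 1000 nM compound, 7-11 day culture after seeding 100 to 1,000 cells per well in 10% FBS medium. Percent inhibition derived from Cell Counting Kit-8 signal relative to untreated control.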

A further assay deals with EZH2 (Homo sapiens, UniProt Q15910). Description: AlphaLISA enzyme activity inhibition, EZH2. Format: biochemical. To be noted: 5nM test substance. As to the method:
as §1

The subject of another assay is NCI-H1299 cells. Description: Cancer cell proliferation inhibition (Cell Counting Kit-8), lung cancer cell line. The settings on record: Homo sapiens, NCI-H1299, 264 h, 1000 nM, cultured seven to 11 days; read-out: % inhibition rate NCI-H129 9. Type of assay: cell-based. A digest of the protocol: as §2
(Tetrazolium assays rely on reduction of a dye to a coloured formazan, in cell work by metabolically active cells.)

The next assay concerns G401 cells. In words: Cancer cell proliferation inhibition (Cell Counting Kit-8), rhabdoid tumor cell line. Format: cell-based. To be noted: Homo sapiens, G-401, 264 h, 1000 nM, cultured seven to 11 days; read-out: % inhibition rate G401. The method, boiled down: (§3)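 Single 1000 nM dose of test substance, applied to cells seeded at 100–1,000 per well in 10% FBS medium, then culture for seven to 11 days. CCK-8 read-out; inhibition rate expressed as percent relative to untreated control.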

For another assay, the system named is MIA-PaCa-2 cells. In words: Cancer cell proliferation inhibition (Cell Counting Kit-8), pancreatic cancer cell line. Type of assay: cell-based. The settings on record: Homo sapiens, MIA PaCa-2, 264 h, 1000 nM, cultured seven to 11 days; read-out: % inhibition rate MIA-Paca2. The method, boiled down: as §2
The test system of another assay is Lovo cells. In words: Cancer cell proliferation inhibition (Cell Counting Kit-8), colorectal cancer cell line. Type of assay: cell-based. The settings on record: Homo sapiens, LoVo, 264 h, 1000 nM, cultured seven to 11 days; read-out: % inhibition rate LoVo. The method, boiled down:
as §2

A further assay deals with MKN-45 cells. Description: Cancer cell proliferation inhibition (Cell Counting Kit-8), gastric cancer cell line. Format: cell-based. The settings on record: Homo sapiens, MKN-45, 264 h, 1000 nM, cultured seven to 11 days; read-out: % inhibition rate MKN -45. The method, boiled down:
as §3

A value given as a limit tells only on which side of the number the result lay.

EZH2, sequence (Q15910 whole entry, species assumed): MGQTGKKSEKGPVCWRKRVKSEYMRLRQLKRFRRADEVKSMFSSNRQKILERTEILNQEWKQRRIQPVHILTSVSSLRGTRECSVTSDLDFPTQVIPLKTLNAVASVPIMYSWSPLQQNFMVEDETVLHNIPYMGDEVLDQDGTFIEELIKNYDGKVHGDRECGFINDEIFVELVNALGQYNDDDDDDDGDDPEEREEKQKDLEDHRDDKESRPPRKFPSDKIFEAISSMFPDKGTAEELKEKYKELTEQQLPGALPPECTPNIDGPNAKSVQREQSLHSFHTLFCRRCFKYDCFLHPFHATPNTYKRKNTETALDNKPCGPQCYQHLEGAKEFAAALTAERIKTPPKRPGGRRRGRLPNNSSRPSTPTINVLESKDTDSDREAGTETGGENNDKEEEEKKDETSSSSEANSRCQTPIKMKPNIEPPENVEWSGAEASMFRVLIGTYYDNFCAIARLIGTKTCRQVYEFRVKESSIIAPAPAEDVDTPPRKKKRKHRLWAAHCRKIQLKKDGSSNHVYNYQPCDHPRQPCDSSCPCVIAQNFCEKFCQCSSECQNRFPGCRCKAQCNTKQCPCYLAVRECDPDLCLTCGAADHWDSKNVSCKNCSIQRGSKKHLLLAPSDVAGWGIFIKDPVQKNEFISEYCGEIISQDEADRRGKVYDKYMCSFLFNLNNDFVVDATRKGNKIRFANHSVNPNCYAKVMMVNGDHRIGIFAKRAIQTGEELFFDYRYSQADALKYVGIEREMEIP
EZH2, sequence (O75530 whole entry partner, species assumed): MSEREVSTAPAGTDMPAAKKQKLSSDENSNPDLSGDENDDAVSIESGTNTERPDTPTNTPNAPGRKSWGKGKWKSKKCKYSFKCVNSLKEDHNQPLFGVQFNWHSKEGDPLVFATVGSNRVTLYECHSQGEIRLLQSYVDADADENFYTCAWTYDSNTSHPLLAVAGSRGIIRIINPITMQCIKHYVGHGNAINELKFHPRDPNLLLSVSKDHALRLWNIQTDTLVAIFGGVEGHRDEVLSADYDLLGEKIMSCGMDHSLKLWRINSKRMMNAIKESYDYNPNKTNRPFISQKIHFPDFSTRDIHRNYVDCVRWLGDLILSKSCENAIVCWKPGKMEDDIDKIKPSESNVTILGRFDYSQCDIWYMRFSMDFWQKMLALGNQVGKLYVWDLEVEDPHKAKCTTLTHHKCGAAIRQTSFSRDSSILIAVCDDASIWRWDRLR
EZH2, sequence (Q15022 whole entry partner, species assumed): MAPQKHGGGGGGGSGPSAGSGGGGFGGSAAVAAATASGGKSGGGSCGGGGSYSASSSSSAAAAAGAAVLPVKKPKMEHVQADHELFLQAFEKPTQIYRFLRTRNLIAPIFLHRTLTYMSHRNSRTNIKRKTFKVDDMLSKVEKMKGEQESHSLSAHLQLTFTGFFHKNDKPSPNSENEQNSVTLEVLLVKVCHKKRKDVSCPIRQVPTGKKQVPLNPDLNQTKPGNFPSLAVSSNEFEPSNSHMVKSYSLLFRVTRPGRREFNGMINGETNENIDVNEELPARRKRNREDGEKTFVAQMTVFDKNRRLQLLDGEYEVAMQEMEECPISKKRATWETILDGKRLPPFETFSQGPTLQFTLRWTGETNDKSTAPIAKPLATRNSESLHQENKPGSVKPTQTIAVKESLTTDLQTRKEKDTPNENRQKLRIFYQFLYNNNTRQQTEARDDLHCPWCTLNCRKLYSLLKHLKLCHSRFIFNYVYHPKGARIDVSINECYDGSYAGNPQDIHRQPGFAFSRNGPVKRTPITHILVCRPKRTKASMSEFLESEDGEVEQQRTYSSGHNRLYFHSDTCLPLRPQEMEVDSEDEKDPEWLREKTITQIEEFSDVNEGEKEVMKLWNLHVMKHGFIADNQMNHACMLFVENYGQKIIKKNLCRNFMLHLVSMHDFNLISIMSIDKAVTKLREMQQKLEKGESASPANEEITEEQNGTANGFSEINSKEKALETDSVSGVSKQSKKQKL
EZH1, sequence (Q92800 whole entry, species assumed): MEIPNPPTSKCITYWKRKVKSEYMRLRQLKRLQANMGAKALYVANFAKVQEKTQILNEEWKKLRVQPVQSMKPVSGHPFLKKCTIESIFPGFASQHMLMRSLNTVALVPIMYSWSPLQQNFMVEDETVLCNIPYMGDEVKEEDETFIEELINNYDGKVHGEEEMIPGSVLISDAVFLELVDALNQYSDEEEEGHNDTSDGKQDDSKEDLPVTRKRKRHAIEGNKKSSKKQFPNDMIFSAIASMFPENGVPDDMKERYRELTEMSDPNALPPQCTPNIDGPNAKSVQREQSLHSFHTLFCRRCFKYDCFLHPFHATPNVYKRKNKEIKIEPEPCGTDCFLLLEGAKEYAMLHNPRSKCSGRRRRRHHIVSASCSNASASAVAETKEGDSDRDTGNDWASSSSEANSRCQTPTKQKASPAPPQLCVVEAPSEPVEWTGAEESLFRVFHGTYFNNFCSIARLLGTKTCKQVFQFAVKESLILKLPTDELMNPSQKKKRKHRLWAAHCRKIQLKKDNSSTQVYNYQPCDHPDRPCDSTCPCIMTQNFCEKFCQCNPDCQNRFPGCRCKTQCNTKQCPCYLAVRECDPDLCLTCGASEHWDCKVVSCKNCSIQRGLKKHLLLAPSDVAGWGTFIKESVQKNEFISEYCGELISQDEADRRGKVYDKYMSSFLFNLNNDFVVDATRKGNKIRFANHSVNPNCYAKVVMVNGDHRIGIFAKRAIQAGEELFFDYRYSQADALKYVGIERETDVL
EZH1, sequence (O75530 whole entry partner, species assumed): as the sequence (O75530 whole entry partner, species assumed) above
EZH1, sequence (Q15022 whole entry partner, species assumed): as the sequence (Q15022 whole entry partner, species assumed) above

On to `CSc1cc(C)[nH]c(=O)c1CNC(=O)c1cc(-c2ccsc2)c2c(c1C)OC(C)([C@H]1CC[C@H](N(C)C)CC1)O2` (relative stereo) [Compound 11, 2-(trans-4-(dimethylamino)cyclohexyl)-2,4-dimethyl-N-((6-methyl-4-(methylthio)-2-oxo-1,2-dihydropyridin-3-yl)methyl)-7-(thiophen-3-yl)benzo[d][1,3]dioxole-5-carboxamide], for which the inhibition at 0.005 µM against EZH1 stood at 82.9%; against EZH2, 98.9%. Besides, the inhibition at 1 µM with SW-13 cells is 30 to 70%; with NCI-H1299 cells it was 30 to 70%; in the assay on G401 cells, 30 to 70%; in the assay with MIA-PaCa-2 cells, at most 30%; with Lovo cells it was at least 70%; in the assay on MKN-45 cells, at most 30%.

`COc1ccc(F)cc1-c1cc(C(=O)NCc2c(SC)cc(C)[nH]c2=O)c(C)c2c1OC(C)([C@H]1CC[C@H](N(C)C)CC1)O2` (relative stereo) [Compound 12, 2-(trans-4-(dimethylamino)cyclohexyl)-7-(5-fluoro-2-methoxyphenyl)-2,4-dimethyl-N-((6-methyl-4-(methylthio)-2-oxo-1,2-dihydropyridin-3-yl)methyl)benzo[d][1,3]dioxole-5-carboxamide]: the inhibition at 0.005 µM on EZH1 turned out to be 80.5%; at EZH2, 99.2%. In addition, the inhibition at 1 µM is 30 to 70% in the assay on SW-13 cells; at most 30% in the assay on NCI-H1299 cells; 30 to 70% with G401 cells; at most 30% in the assay on MIA-PaCa-2 cells; 30 to 70% in the assay with Lovo cells; at most 30% in the assay on MKN-45 cells.

Turning to `CSc1cc(C)[nH]c(=O)c1CNC(=O)c1cc(-c2c(C)noc2C)c2c(c1C)OC(C)([C@H]1CC[C@H](N(C)C)CC1)O2` (relative stereo) [Compound 13, 2-(trans-4-(dimethylamino)cyclohexyl)-7-(3,5-dimethylisoxazol-4-yl)-2,4-dimethyl-N-((6-methyl-4-(methylthio)-2-oxo-1,2-dihydropyridin-3-yl)methyl)benzo[d][1,3]dioxole-5-carboxamide], the figures for the inhibition at 0.005 µM against EZH1 and against EZH2 were 53.7% and 97.6%, respectively. Besides, the inhibition at 1 µM with SW-13 cells was at most 30%; in the assay on NCI-H1299 cells, at most 30%; with G401 cells it was 30 to 70%; in the assay on MIA-PaCa-2 cells it was at most 30%; in the assay with Lovo cells, 30 to 70%; in the assay with MKN-45 cells, at most 30%.

`CSc1cc(C)[nH]c(=O)c1CNC(=O)c1cc(-c2ccc(F)nc2F)c2c(c1C)OC(C)([C@H]1CC[C@H](N(C)C)CC1)O2` (relative stereo) [Compound 14, 7-(2,6-difluoropyridin-3-yl)-2-(trans-4-(dimethylamino)cyclohexyl)-2,4-dimethyl-N-((6-methyl-4-(methylthio)-2-oxo-1,2-dihydropyridin-3-yl)methyl)benzo[d][1,3]dioxole-5-carboxamide]: the inhibition at 0.005 µM on EZH1 is 86.4%; at EZH2, 97.6%. For the same compound, the inhibition at 1 µM was 30 to 70% in the assay on SW-13 cells; at most 30% in the assay with NCI-H1299 cells; 30 to 70% in the assay on G401 cells; at most 30% in the assay with MIA-PaCa-2 cells; at least 70% with Lovo cells; at most 30% in the assay with MKN-45 cells.

Consider `CSc1cc(C)[nH]c(=O)c1CNC(=O)c1cc(-c2cnc(N3CCC4(CC3)COC4)nc2)c2c(c1C)OC(C)([C@H]1CC[C@H](N(C)C)CC1)O2` (relative stereo) [Compound 15, 7-(2-(2-oxa-7-azaspiro[3.5]nonan-7-yl)pyrimidin-5-yl)-2-(trans-4-(dimethylamino)cyclohexyl)-2,4-dimethyl-N-((6-methyl-4-(methylthio)-2-oxo-1,2-dihydropyridin-3-yl)methyl)benzo[d][1,3]dioxole-5-carboxamide], for which the inhibition at 0.005 µM against EZH1 was 94.5%; against EZH2 it was 99.8%. In addition, the inhibition at 1 µM was 30 to 70% in the assay with SW-13 cells; at most 30% in the assay on NCI-H1299 cells; 30 to 70% in the assay on G401 cells; at most 30% in the assay on MIA-PaCa-2 cells; at least 70% in the assay with Lovo cells; 30 to 70% in the assay with MKN-45 cells.

As for `CSc1cc(C)[nH]c(=O)c1CNC(=O)c1cc(-c2ccc(N3CC(C)CC(C)C3)nc2)c2c(c1C)OC(C)([C@H]1CC[C@H](N(C)C)CC1)O2` (relative stereo) [Compound 16, 2-(trans-4-(dimethylamino)cyclohexyl)-7-(6-(3,5-dimethylpiperidin-1-yl)pyridin-3-yl)-2,4-dimethyl-N-((6-methyl-4-(methylthio)-2-oxo-1,2-dihydropyridin-3-yl)methyl)benzo[d][1,3]dioxole-5-carboxamide], the inhibition at 0.005 µM at EZH1 was found to be 69%; against EZH2, 92.4%. Further, the inhibition at 1 µM in the assay with SW-13 cells was at least 70%; in the assay on NCI-H1299 cells, at most 30%; with G401 cells, 30 to 70%; with MIA-PaCa-2 cells it was at most 30%; in the assay with Lovo cells, at least 70%; with MKN-45 cells, 30 to 70%.

As to `CSc1cc(C)[nH]c(=O)c1CNC(=O)c1cc(-c2ccc(N3CCSCC3)nc2)c2c(c1C)OC(C)([C@H]1CC[C@H](N(C)C)CC1)O2` (relative stereo) [Compound 17, 2-(trans-4-(dimethylamino)cyclohexyl)-2,4-dimethyl-N-((6-methyl-4-(methylthio)-2-oxo-1,2-dihydropyridin-3-yl)methyl)-7-(6-thiomorpholinopyridin-3-yl)benzo[d][1,3]dioxole-5-carboxamide], the inhibition at 0.005 µM against EZH1 was determined as 93.8%; on EZH2, 99.3%. Further, the inhibition at 1 µM with SW-13 cells is 30 to 70%; in the assay with NCI-H1299 cells, 30 to 70%; in the assay with G401 cells, 30 to 70%; with MIA-PaCa-2 cells it was at most 30%; with Lovo cells, at least 70%; in the assay with MKN-45 cells, at most 30%.

Regarding `CSc1cc(C)[nH]c(=O)c1CNC(=O)c1cc(-c2ccoc2)c2c(c1C)OC(C)([C@H]1CC[C@H](N(C)C)CC1)O2` (relative stereo) [Compound 18, 2-(trans-4-(dimethylamino)cyclohexyl)-7-(furan-3-yl)-2,4-dimethyl-N-((6-methyl-4-(methylthio)-2-oxo-1,2-dihydropyridin-3-yl)methyl)benzo[d][1,3]dioxole-5-carboxamide], the inhibition at 0.005 µM on EZH1 was 87.6%; against EZH2, 99.8%. For the same compound, the inhibition at 1 µM is 30 to 70% in the assay on SW-13 cells; at most 30% in the assay with NCI-H1299 cells; 30 to 70% in the assay with G401 cells; at most 30% in the assay on MIA-PaCa-2 cells; at least 70% with Lovo cells; at most 30% in the assay with MKN-45 cells.

With `CSc1cc(C)[nH]c(=O)c1CNC(=O)c1cc(-c2ccc(Cl)s2)c2c(c1C)OC(C)([C@H]1CC[C@H](N(C)C)CC1)O2` (relative stereo) [Compound 19, 7-(5-chlorothiophen-2-yl)-2-(trans-4-(dimethylamino)cyclohexyl)-2,4-dimethyl-N-((6-methyl-4-(methylthio)-2-oxo-1,2-dihydropyridin-3-yl)methyl)benzo[d][1,3]dioxole-5-carboxamide], the inhibition at 0.005 µM at EZH1 came out at 78.7%; at EZH2, 98.7%. Moreover, the inhibition at 1 µM with SW-13 cells was 30 to 70%; in the assay on NCI-H1299 cells it was at most 30%; in the assay with G401 cells it was 30 to 70%; with MIA-PaCa-2 cells, at most 30%; in the assay on Lovo cells, at least 70%; in the assay with MKN-45 cells, 30 to 70%.

Regarding `CSc1cc(C)[nH]c(=O)c1CNC(=O)c1cc(-c2cnc(N3CCCCC3)nc2)c2c(c1C)OC(C)([C@H]1CC[C@H](N(C)CC(F)(F)F)CC1)O2` (relative stereo) [Compound 21, 2,4-dimethyl-2-(trans-4-(methyl(2,2,2-trifluoroethyl)amino)cyclohexyl)-N-((6-methyl-4-(methylthio)-2-oxo-1,2-dihydropyridin-3-yl)methyl)-7-(2-(piperidin-1-yl)pyrimidin-5-yl)benzo[d][1,3]dioxole-5-carboxamide], the inhibition at 0.005 µM on EZH1 is 20.6%; at EZH2, 11.3%. The inhibition at 1 µM is at most 30% with SW-13 cells; at most 30% in the assay on NCI-H1299 cells; at most 30% in the assay on G401 cells; at most 30% in the assay on MIA-PaCa-2 cells; at least 70% in the assay with Lovo cells; at most 30% in the assay on MKN-45 cells.
